US12312292B2, “Long chain alkyl esteramine lipid compound, preparation method therefor and application thereof in nucleic acid delivery” (RinuaGene Biotechnology Co., Ltd., priority 2022, dated 2025)

How the values were obtained:
BALB/c female mice = assay: Acute toxicity analysis of lipid molecules (cationic lipid LNP) in BALB/c female mice; conditions: blood 24 h after injection, Ave(SD)
luciferase mRNA = assay: Detection of reporter gene (luciferase mRNA) expression in mice in vivo; design: species or system BALB/c female mice; conditions: LNP-delivered luciferase mRNA, quadriceps muscle injection, IVIS 24 h after injection; dose (5 or 14 μg mRNA) not given
Protocol: The prepared LNP-encapsulated mRNA solution was diluted with PBS buffer to obtain the solution for injection. BALB/c female mice at about 20 g were injected with injection solution at the quadriceps muscle site of mice with an insulin syringe, and each mouse was injected with 50 μL. Two doses were designed: one dose of “5 μg mRNA per 50 μL of injection solution” and the other dose of “14 μg mRNA per 50 μL of injection solution”. BALB/c female mice at about 20 g are injected with PBS buffer at the quadriceps muscle site of mice with an insulin syringe, and each mouse was injected with 50 μL.
After the mice were injected for 24 h, in vivo expression of Luciferase was detected with Perkinelmer's IVIS. The substrate was D-luciferin Sodium salt (GOLDBIO, LUCNA-1G), which was formulated into a concentration of 15 mg/mL with normal saline, filtered and sterilized with a 0.22 μm filter membrane, and stored at −20° C. in aliquots protected from light. Before imaging, each mouse at about 20 g was intraperitoneally injected with 200 μL of substrate solution for 10-20 minutes, and then was anesthetized with isoflurane gas and placed prone on the imaging plate to detect the fluorescence of the animal in vivo, and the results are shown in Table 2.

[1] = In vivo expression distribution analysis of delivered luciferase mRNA (RT-PCR in tissues); design: species or system C57BL/6J mice; conditions: single intramuscular injection 50 μg; for Exposure in tissues and organs, from high to low: delivered luciferase mRNA, 2 h-336 h, RT-PCR
Protocol: In order to investigate the distribution features of lipid-delivering mRNA in vivo, we analyzed the distribution features of the reporter luciferase mRNA of the compounds of the present invention in C57BL/6J mice after administration by a single intramuscular injection. The experimental 10 C57BL/6J mice were enrolled, male and female, each administered 50 μg, with SM102 as the control.
Animals in the negative control group were collected at 2 h and 336 h after administration, and animals in the test group were collected at 2 h, 6 h, 24 h, 48 h, 72 h, 120 h, 168 h, and 336 h after administration whole blood, bone marrow, liver, spleen, heart, kidney, inguinal lymph nodes, mesenteric lymph nodes, spleen, brain, stomach, small intestine, non-injection site muscle, injection site muscle tissue, etc. The RNA content in the samples at each time point was detected by RT-PCR, and the lower limit of quantification of the method was […] to reflect the distribution features in C57BL/6J mice.

[2] = mRNA-LNP encapsulation: particle size, PDI and encapsulation rate of LNP; format: physicochemical
Protocol: The mRNA stock solution was dispersed in 20 mM acetic acid solution (pH 5.0) to a final concentration of 200 μg/mL (aqueous phase). A fat mixture (oil phase) was obtained by mixing under a molar ratio of the exemplary compound:cholesterol:DSPC:DMG-PEG2000=50:38.5:10:1.5. The flow rate of the aqueous phase and the oil phase was controlled by T mixed flow, and the mRNA and lipid mixture were mixed under the volume ratio of 3:1 to obtain LNP-encapsulated mRNA. The encapsulated LNP was diluted 10-fold with buffer, then concentrated by ultrafiltration, and the dilute was displaced, and finally the LNP was concentrated to mRNA being 200 µg/mL, and the pH of the LNP was adjusted to about 7-8. Finally, the Ribogreen kit and 10% OTG were used as demulsifiers to detect the total content of mRNA and the content of […], and the encapsulation rate of LNP was calculated. The LNP final product was diluted 10-fold with diluent, added 1 mL into a particle size cell, and placed on the Malvern ZetaSizer instrument to detect the particle size and PDI of LNP.

[3] = LNP of compound:cholesterol:DSPC:DMG-PEG2000=50:38.5:10:1.5 with mRNA, Malvern ZetaSizer

## CCCCCCCCCCCOC(=O)CCCCCN(CCCCCO)CCCCCCCC(=O)OC(CCCCCCCC)CCCCCCCC [Example 1]
BALB/c female mice; high dose group, 150 μg LNP/pc
  Alanine aminotransferase: 38.16 U/L
  Alkaline phosphatase (ALP): 112.7 U/L
  Aspartate aminotransferase: 125.26 U/L
  Creatinine: 12.4 µmol/L
  Total bilirubin (TBIL): 1.56
  γ-Glutamyltransferase (GGT): 0.12 (0.12) U/L
BALB/c female mice; low dose group, 50 μg/pc
  Alanine aminotransferase: 33.46 (3.54) U/L
  Alkaline phosphatase (ALP): 114.38 U/L
  Aspartate aminotransferase: 109.92 U/L
  Creatinine: 13.8 µmol/L
  Total bilirubin (TBIL): 1.18 (0.13)
  γ-Glutamyltransferase (GGT): 0.22 (0.33) U/L
Luciferase mRNA
  Average fluorescence intensity: 1.218E+06 P/s/cm^2/sr
[1]
  Exposure in tissues and organs, from high to low: injection site muscle, inguinal lymph nodes, whole blood, spleen, non-injection site muscle, bone marrow, heart, liver, mesenteric lymph nodes, kidney, small intestine and brain

## CCCCCCCCCCCOC(=O)CCCCCN(CCCCCCCO)CCCCCCCC(=O)OC(CCCCCCCC)CCCCCCCC [Example 3]
Luciferase mRNA
  Average fluorescence intensity: 8.55E+05 P/s/cm^2/sr

## CCCCCCCCCCCOC(=O)CCCCCN(CCCCCCCCO)CCCCCCCC(=O)OC(CCCCCCCC)CCCCCCCC [Example 4]
Luciferase mRNA
  Average fluorescence intensity: 5.47E+05 P/s/cm^2/sr

## CCCCCCCCCCCOC(=O)CCCCCN(CCCCCCCCCO)CCCCCCCC(=O)OC(CCCCCCCC)CCCCCCCC [Example 5]
Luciferase mRNA
  Average fluorescence intensity: 5.67E+05 P/s/cm^2/sr

## CCCCCCCCCCCOC(=O)CCCCCN(CCCCCCCCCCO)CCCCCCCC(=O)OC(CCCCCCCC)CCCCCCCC [Example 6]
Luciferase mRNA
  Average fluorescence intensity: 5.08E+05 P/s/cm^2/sr

## CCCCCCCCCCCOC(=O)CCCCCN(CCCCCCCCCCCCO)CCCCCCCC(=O)OC(CCCCCCCC)CCCCCCCC [Example 7]
BALB/c female mice; high dose group, 150 μg LNP/pc
  Alanine aminotransferase: 39.92 U/L
  Alkaline phosphatase (ALP): 103.8 U/L
  Aspartate aminotransferase: 138.44 U/L
  Creatinine: 12.2 µmol/L
  Total bilirubin (TBIL): 1.35
  γ-Glutamyltransferase (GGT): 0.22 (0.04) U/L
BALB/c female mice; low dose group, 50 μg/pc
  Alanine aminotransferase: 33.56 (5.17) U/L
  Alkaline phosphatase (ALP): 107.58 U/L
  Aspartate aminotransferase: 109.54 U/L
  Creatinine: 13.6 µmol/L
  Total bilirubin (TBIL): 1.18 (0.16)
  γ-Glutamyltransferase (GGT): 0.06 (0.12) U/L
Luciferase mRNA
  Average fluorescence intensity: 4.73E+05 P/s/cm^2/sr
[1]; compared with SM-102
  Level (distribution) of delivered mRNA in the stomach: higher distribution
[1]; compared with SM-102, listed as compound 7
  Level (distribution) of delivered mRNA in the stomach: relatively higher level
[1]
  Exposure in tissues and organs, from high to low: injection site muscle, inguinal lymph nodes, whole blood, spleen, non-injection site muscle, bone marrow, heart, liver, mesenteric lymph nodes, kidney, small intestine and brain

## CCCCCCCCCCCOC(=O)CCCCCN(CCCCCCCC(=O)OC(CCCCCCCC)CCCCCCCC)C(C)CCCO (stereo not shown) [Example 8]
Luciferase mRNA
  Average fluorescence intensity: 1.17E+03 P/s/cm^2/sr

## CCCCCCCCCCCOC(=O)CCCCCN(CCCCCCCC(=O)OC(CCCCCCCC)CCCCCCCC)C(C)CCO (stereo not shown) [Example 9]
BALB/c female mice; high dose group, 150 μg LNP/pc
  Alanine aminotransferase: 37.25 U/L
  Alkaline phosphatase (ALP): 116.9 U/L
  Aspartate aminotransferase: 128.26 U/L
  Creatinine: 12.1 µmol/L
  Total bilirubin (TBIL): 1.43
  γ-Glutamyltransferase (GGT): 0.18 (0.15) U/L
BALB/c female mice; low dose group, 50 μg/pc
  Alanine aminotransferase: 35.44 (3.67) U/L
  Alkaline phosphatase (ALP): 115.29 U/L
  Aspartate aminotransferase: 107.55 U/L
  Creatinine: 14.2 µmol/L
  Total bilirubin (TBIL): 1.21 (0.19)
  γ-Glutamyltransferase (GGT): 0.24 (0.37) U/L
Luciferase mRNA
  Average fluorescence intensity: 3.74E+05 P/s/cm^2/sr
[1]; compared with SM-102
  Level of delivered mRNA in the small intestine: relatively higher level
[1]
  Exposure in tissues and organs, from high to low: inguinal lymph nodes, injection site muscles, non-injection site muscles, whole blood, spleen, bone marrow, mesenteric lymph nodes, heart, liver, kidney, small intestine, stomach and brain

## CCCCCCCCCCCOC(=O)CCCCCN(CCCCCCCC(=O)OC(CCCCCCCC)CCCCCCCC)CC(C)(C)CO [Example 10]
Luciferase mRNA
  Average fluorescence intensity: 7.37E+03 P/s/cm^2/sr

## CCCCCCCCCCCOC(=O)CCCCCN(CCCCCCCC(=O)OC(CCCCCCCC)CCCCCCCC)CC(F)(F)CO [Example 11]
Luciferase mRNA
  Average fluorescence intensity: 1.39E+03 P/s/cm^2/sr

## CCCCCCCCCCCOC(=O)CCCCCN(CCCCCCCC(=O)OC(CCCCCCCC)CCCCCCCC)CC1(CO)CC1 [Example 12]
Luciferase mRNA
  Average fluorescence intensity: 3.62E+03 P/s/cm^2/sr

## CCCCCCCCCCCOC(=O)CCCCCN(CCCCCCCC(=O)OC(CCCCCCCC)CCCCCCCC)CC1(O)CC1 [Example 13]
BALB/c female mice; high dose group, 150 μg LNP/pc
  Alanine aminotransferase: 39.99 U/L
  Alkaline phosphatase (ALP): 109.84 U/L
  Aspartate aminotransferase: 126.77 U/L
  Creatinine: 12.4 µmol/L
  Total bilirubin (TBIL): 1.34
  γ-Glutamyltransferase (GGT): 0.18 (0.18) U/L
BALB/c female mice; low dose group, 50 μg/pc
  Alanine aminotransferase: 36.19 (3.01) U/L
  Alkaline phosphatase (ALP): 111.74 U/L
  Aspartate aminotransferase: 110.27 U/L
  Creatinine: 13.5 µmol/L
  Total bilirubin (TBIL): 1.18 (0.23)
  γ-Glutamyltransferase (GGT): 0.38 (0.41) U/L
Luciferase mRNA
  Average fluorescence intensity: 2.78E+05 P/s/cm^2/sr
[1]; compared with SM-102
  Level (distribution) of delivered mRNA in the stomach: relatively higher level
[1]
  Exposure in tissues and organs, from high to low: inguinal lymph nodes, injection site muscles, non-injection site muscles, whole blood, spleen, bone marrow, mesenteric lymph nodes, heart, liver, kidneys, stomach, small intestine and brain

## CCCCCCCCCCCOC(=O)CCCCCN(CCCCCCCC(=O)OC(CCCCCCCC)CCCCCCCC)C1(CO)CC1 [Example 14]
Luciferase mRNA
  Average fluorescence intensity: 1.91E+03 P/s/cm^2/sr

## CCCCCCCCCCCOC(=O)CCCCCN(CCCCCCCC(=O)OC(CCCCCCCC)CCCCCCCC)CC1(CO)CCC1 [Example 15]
Luciferase mRNA
  Average fluorescence intensity: 1.57E+03 P/s/cm^2/sr

## CCCCCCCCCCCOC(=O)CCCCCN(CCO)CCCCCCCC(=O)OC(CCCCCCCC)CCCCCCCC [SM102, reference compound]
BALB/c female mice; high dose group, 150 μg LNP/pc
  Alanine aminotransferase: 56.18 U/L
  Alkaline phosphatase (ALP): 116.88 U/L
  Aspartate aminotransferase: 145.96 U/L
  Creatinine: 12.6 µmol/L
  γ-Glutamyltransferase (GGT): 0.32 (0.22) U/L
BALB/c female mice; low dose group, 50 μg/pc
  Alanine aminotransferase: 36.04 (2.93) U/L
  Alkaline phosphatase (ALP): 131.7 U/L
  Aspartate aminotransferase: 121.4 U/L
  Creatinine: 14.6 µmol/L
  γ-Glutamyltransferase (GGT): 0.41 (0.24) U/L
Luciferase mRNA
  Average fluorescence intensity: 1.112E+06 P/s/cm^2/sr
[1]
  Exposure in tissues and organs, from high to low: inguinal lymph nodes, injection site muscles, whole blood, non-injection site muscles, spleen, bone marrow, heart, mesenteric lymph nodes, liver, kidney, small intestine, and brain
[2]; [3]
  PDI: 0.1296
  Particle size (nm): 92.16 nm
[2]; LNP-encapsulated mRNA, Ribogreen kit
  Encapsulation rate: 95%
